Reference: patent US5053070A, “Pyrimidine derivatives, preparation processes thereof, herbicide containing the same, and herbicidal compositions containing the same along with other active ingredient” (Mitsui Toatsu Chemicals, Incorporated, priority 1988, dated 1991)
In brackets after ≈: the same amount, converted by molar mass.

Legend:
[1] = test system: ALS (acetolactate syntase); assay: ALS enzyme assay (Test 1); type: biochemical, barnyardgrass; conditions: 1,000 ppm (0.5 mg/0.5 ml)
Summary of the method: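 Partially purified ALS from dark-grown pea and barnyardgrass seedlings incubated 1 h at 30° C with pyruvate, TPP, MgCl2 and FAD. Compounds tested at 1,000 ppm (0.5 mg/0.5 ml). Acetoin formed detected colorimetrically at 525 nm via creatine/α-naphthol, relative to blank and acid-stopped controls.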

cotton [2] = assay: Upland soil application test (Test 2), crop injury; type: in vivo; conditions: 30 g ai/a, soil spray before emergence, 30 days later
Summary of the method: (§1)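 Pre-emergence soil spray, greenhouse. Weed seeds mixed through upland soil; crops sown alongside. Day 1 post-sowing: wettable-powder formulation, water-diluted, applied at 10 l/are by pressure ULV sprayer. Read at 30 days as air-dried weight vs untreated pots, scored on a graded damage scale.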

peanut [3] = assay: Upland soil application test (Test 2), crop injury; type: in vivo; conditions: 30 g ai/a, soil spray before emergence, 30 days later
Summary of the method: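 Pre-emergence test in upland soil pots with weed seeds mixed into the soil; one day after seeding, wettable-powder formulation diluted in water and sprayed onto the soil surface at 10 l per are. Damage scored 30 days later from air-dried weight relative to untreated pots.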

soybean [4] = assay: Upland soil application test (Test 2), crop injury; type: in vivo; conditions: 30 g ai/a, soil spray before emergence, 30 days later
Summary of the method: as §1

cotton [5] = assay: Upland foliar application test (Test 3), crop injury; type: in vivo; conditions: 30 g ai/a, foliar spray at 2-3 leaves, 30th day
Summary of the method: (§2)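 Upland-soil pots seeded with weeds and crops (incl. cotton, large crabgrass, johnsongrass, common lambsquarters), grown in greenhouse to 2-3 leaf stage. Emulsion diluted with water sprayed on foliage at 5 l per are via ULV sprayer. Weed damage and crop injury scored 30 days after spraying.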

peanut [6] = assay: as above; type: in vivo; conditions: 30 g ai/a, foliar spray at 2-3 leaves, 30th day
Summary of the method: as §2

soybean [7] = assay: as above; type: in vivo; conditions: 30 g ai/a, foliar spray at 2-3 leaves, 30th day
Summary of the method: as §2

Sagittaria pygmaea = assay: Treatment of soil under submerged condition, post-emergence (Test 5); type: in vivo; conditions: 30 g ai/a granule, 30 days later
Summary of the method: (§3)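 Soil was filled into pots and kept submerged, and weed seeds or tubers were sown. Pairs of pre-reared rice seedlings at 2–3 leaves were then transplanted. A granule of the composition was applied at the barnyardgrass two-leaf stage, and plants were rated after 30 days.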

barnyardgrass = assay: as above; type: in vivo; conditions: 30 g ai/a granule, post-emergence (barnyardgrass two-leaf stage), 30 days later
Summary of the method: as §3

bulrush = assay: as above; type: in vivo; conditions: 30 g ai/a granule, 30 days later
Summary of the method: as §3

rice = assay: Treatment of soil under submerged condition, post-emergence (Test 5), injury; type: in vivo; conditions: 30 g ai/a granule, 30 days later
Summary of the method: as §3

narrowleaf waterplantain = assay: Petri dish test (Test 6); type: in vivo; conditions: 336 h; seeds on filter paper, 25° C., 14 days; read-out: I80 (ppm)
Summary of the method: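 Narrowleaf waterplantain seeds placed on filter paper pre-treated with compound in acetone (solvent air-dried) in 9 cm Petri dishes with 10 ml water, grown at 25° C in light. Growth was scored after fourteen days as degree of damage against an untreated group.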

SMILES | Inhibitory activity (%) Barnyardgrass [1] [%] | Injury Cotton (cotton [2]) | Injury Peanut (peanut [3]) | Injury Soybean (soybean [4]) | Injury Cotton (cotton [5]) | Injury Peanut (peanut [6]) | Injury Soybean (soybean [7]) | Herbicidal effects Sagittaria Pygmaea (Sagittaria pygmaea) | Herbicidal effects Barnyardgrass (barnyardgrass) | Herbicidal effects Bulrush (bulrush) | Injury Rice (rice) | IC80 (narrowleaf waterplantain) [mg/L]
COc1cc(OC)nc(Oc2ccccc2C=NOCc2ccc(C)cc2)n1 [compound 19] | 16 | 0 (91-100 (No damages)) | 0 (91-100 (No damages)) | 0 (91-100 (No damages)) | 0 (91-100 (No damages)) | 0 (91-100 (No damages)) | 0 (91-100 (No damages)) | 3 (11-40 (Medium damages)) | 4 (6-10 (Severe damages)) | 4 (6-10 (Severe damages)) | 0 (91-100 (No damages)) | 100 (≈ 264 µM)
COc1cc(OC)nc(Oc2ccccc2C=NOCc2cccc(C)c2)n1 [compound 20] | 58 | 0 (91-100 (No damages)) | 0 (91-100 (No damages)) | 0 (91-100 (No damages)) | 0 (91-100 (No damages)) | 0 (91-100 (No damages)) | 0 (91-100 (No damages)) | 4 (6-10 (Severe damages)) | 5 (0-5 (Death)) | 4 (6-10 (Severe damages)) | 0 (91-100 (No damages)) | 100 (≈ 264 µM)
COc1cc(OC)nc(Oc2ccccc2C=NOC(C)c2ccccc2)n1 (stereo not drawn) [compound 21] | 26 | 0 (91-100 (No damages)) | 0 (91-100 (No damages)) | 0 (91-100 (No damages)) | 0 (91-100 (No damages)) | 0 (91-100 (No damages)) | 0 (91-100 (No damages)) | 3 (11-40 (Medium damages)) | 3 (11-40 (Medium damages)) | 3 (11-40 (Medium damages)) | 0 (91-100 (No damages)) | 100 (≈ 264 µM)
COc1cc(OC)nc(Oc2ccccc2C=NOCc2cccc3ccccc23)n1 [compound 22] | 35 | 0 (91-100 (No damages)) | 0 (91-100 (No damages)) | 0 (91-100 (No damages)) | 0 (91-100 (No damages)) | 0 (91-100 (No damages)) | 0 (91-100 (No damages)) | 3 (11-40 (Medium damages)) | 5 (0-5 (Death)) | 4 (6-10 (Severe damages)) | 0 (91-100 (No damages)) | 100 (≈ 241 µM)
COc1cc(OC)nc(Oc2ccccc2C=NOCCc2ccccc2)n1 [compound 23] | 35 | 0 (91-100 (No damages)) | 0 (91-100 (No damages)) | 0 (91-100 (No damages)) | 0 (91-100 (No damages)) | 0 (91-100 (No damages)) | 0 (91-100 (No damages)) | 5 (0-5 (Death)) | 5 (0-5 (Death)) | 4 (6-10 (Severe damages)) | 0 (91-100 (No damages)) | 100 (≈ 264 µM)
CCCC=CCON=Cc1ccccc1Oc1nc(OC)cc(OC)n1 [compound 25] | 39 | 0 (91-100 (No damages)) | 0 (91-100 (No damages)) | 0 (91-100 (No damages)) | 0 (91-100 (No damages)) | 0 (91-100 (No damages)) | 0 (91-100 (No damages)) | 3 (11-40 (Medium damages)) | 4 (6-10 (Severe damages)) | 5 (0-5 (Death)) | 1 (71-90 (Slight damages)) | 17 (≈ 47.6 µM)
